Consider 16 compounds from patent US10821115B2, “Compounds that inhibit Mcl-1 protein” (priority 2017, dated 2020).

Assay [1] concerns human multiple myeloma cell line, OPM-2. Description: Cell viability assay (OPM-2 10 FBS), CellTiter-Glo. The class given is cell-based. The method in brief: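 3000 cells/well, RPMI 1640 + 10% FBS; serial compound dilutions, 16 h, 37 °C/5% CO2.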
(Cellular ATP, detected with luciferase, serves as a proxy for viable cell number.)

The target in assay [2] is recombinant human Mcl-1 (residues 171-327) / Bim interaction (Homo sapiens (Human), UniProt Q07820). Description: biochemical. The note with it: read-out: Mcl-1 HTRF IC50. The class given is binding. (In TR-FRET formats the signal depends on donor and acceptor labels being close together.)
Where [3] appears, read: TR-FRET, Mcl-1(171-327) / biotin-Bim (51-76).
The mark [4] stands for this setting: Homo sapiens, OPM-2, 16 h, read-out: OPM-2 10% FBS IC50 IP, OPM-2 cells, 10% FBS, 16 h, CellTiter-Glo.
Setting [5] is: read-out: OPM-2 10% FBS IC50 IP, OPM-2 cells, 10% FBS, 16 h incubation.
Where [6] appears, read: 0.1 nM Mcl-1(171-327), 0.05 nM biotin-Bim (51-76).
The mark [7] stands for this setting: Homo sapiens, OPM-2, 16 h, read-out: OPM-2 10% FBS IC50 IP, OPM-2 cells, 10% FBS, 16 h incubation.

Like-named read-outs stand apart in the source and are kept apart here.

recombinant human Mcl-1 (residues 171-327) / Bim interaction, sequence (Q07820 171-327): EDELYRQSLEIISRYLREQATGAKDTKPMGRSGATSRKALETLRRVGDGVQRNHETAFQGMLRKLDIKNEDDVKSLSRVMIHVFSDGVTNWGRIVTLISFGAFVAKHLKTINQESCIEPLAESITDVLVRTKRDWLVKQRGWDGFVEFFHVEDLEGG

Turning to `C[C@@H]1[C@@H](C)C/C=C/[C@](O)(c2nccn2C)[C@@H]2CC[C@H]2CN2C[C@@]3(CCCc4cc(Cl)ccc43)COc3ccc(cc32)C(=O)NS1(=O)=O` [Example 100198, (1S,3′R,6′R,7′R,8′E,11′S,12′R)-6-chloro-7′-hydroxy-11′,12′-dimethyl-7′-(1-methyl-1H-imidazol-2-yl)-3,4-dihydro-2H,15′H-spiro[naphthalene-1,22′-[20]oxa[13]thia[1,14]diazatetracyclo [14.7.2.0~3,6~.0~19,24~]pentacosa[8,16,18,24]tetraen]-15′-one 13′,13′-dioxide], the half-maximal inhibitory concentration (IC50) in assay [1] (read-out: OPM-2 10% FBS IC50 IP, OPM-2 cells, 10% FBS, 16 h, CellTiter-Glo) is 399 nM; in assay [2] (setting [3]), 0.307 nM.

Take `CC#C[C@]1(OC)/C=C/C[C@H](C)[C@@H](C)S(=O)(=O)NC(=O)c2ccc3c(c2)N(C[C@@H]2CC[C@H]21)C[C@@]1(CCCc2cc(Cl)ccc21)CO3` [Example 100501, (1S,3′R,6′R,7′S,8′E,11′S,12′R)-6-chloro-7′-methoxy-11′,12′-dimethyl-7′-(1-propyn-1-yl)-3,4-dihydro-2H,15′H-spiro[naphthalene-1,22′-[20]oxa[13]thia[1,14]diazatetracyclo [14.7.2.0~3,6~.0~19,24~]pentacosa[8,16,18,24]tetraen]-15′-one 13′,13′-dioxide]: the IC50 worked out at 518 nM in assay [1] (setting [4]) and 0.09 nM in assay [2] (setting [3]).

`CO[C@@]1(CN2CCN3CCOC[C@@H]3C2)/C=C/C[C@H](C)[C@@H](Cc2ccccc2)S(=O)(=O)NC(=O)c2ccc3c(c2)N(C[C@@H]2CC[C@H]21)C[C@@]1(CCCc2cc(Cl)ccc21)CO3` (single isomer, unassigned) [Example 102]: the IC50 in assay [1] (setting [5]) came to 416 nM; in assay [2] (setting [6]), 0.182 nM.

In the case of `CO[C@]1(CN2CCN3CCOC[C@@H]3C2)/C=C/C[C@H](C)[C@@H](CC2CCC2)S(=O)(=O)NC(=O)c2ccc3c(c2)N(C[C@@H]2CC[C@H]21)C[C@@]1(CCCc2cc(Cl)ccc21)CO3` [Example 38], the 50% inhibitory concentration (IC50) turned out to be 489 nM in assay [1] (setting [7]) and 0.342 nM in assay [2] (setting [6]).

For the compound `CCCO[C@]1(CN2CCN(C3COC3)CC2)/C=C/C[C@H](C)[C@@H](C)S(=O)(=O)NC(=O)c2ccc3c(c2)N(C[C@@H]2CC[C@H]21)C[C@@]1(CCCc2cc(Cl)ccc21)CO3` [Example 352, (1S,3′R,6′R,7′R,8′E,11′S,12′R)-6-chloro-11′,12′-dimethyl-7′-((4-(3-oxetanyl)-1-piperazinyl)methyl)-7′-propoxy-3,4-dihydro-2H,15′H-spiro[naphthalene-1,22-[20]oxa[13]thia[1,14]diazatetracyclo [14.7.2.0~3,6~.0~19,24~]pentacosa[8,16,18,24]tetraen]-15′-one 13′,13′-dioxide], the IC50 in assay [1] (setting [7]) turned out to be 162 nM; in assay [2] (setting [6]), 0.111 nM.

`CO[C@]1(C#CCCO)/C=C/C[C@H](C)[C@@H](C)S(=O)(=O)NC(=O)c2ccc3c(c2)N(C[C@@H]2CC[C@H]21)C[C@@]1(CCCc2cc(Cl)ccc21)CO3` [Example 100426, (1S,3′R,6′R,7′R,8′E,11′S,12′R)-6-chloro-7′-(4-hydroxy-1-butyn-1-yl)-7′-methoxy-11′,12′-dimethyl-3,4-dihydro-2H,15′H-spiro[naphthalene-1,22′-[20]oxa[13]thia[1,14]diazatetracyclo [14.7.2.0~3,6~.0~19,24~]pentacosa[8,16,18,24]tetraen]-15′-one 13′,13′-dioxide]: the half-maximal inhibitory concentration (IC50) in assay [1] (setting [4]) turned out to be 110 nM; in assay [2] (setting [3]) it was 0.197 nM.

On to `C[C@@H]1[C@@H](C)C/C=C/C(O)(Cc2nccn2C)[C@@H]2CC[C@H]2CN2C[C@@]3(CCCc4cc(Cl)ccc43)COc3ccc(cc32)C(=O)NS1(=O)=O` (stereo in doubt) [Example 100524, (1S,3′R,6′R,7′R,8′E,11′S,12′R)-6-chloro-7′-hydroxy-11′,12′-dimethyl-7′-((1-methyl-1H-imidazol-2-yl)methyl)-3,4-dihydro-2H,15′H-spiro[naphthalene-1,22′-[20]oxa[13]thia[1,14]diazatetracyclo [14.7.2.0~3,6~.0~19,24~]pentacosa[8,16,18,24]tetraen]-15′-one 13′,13′-dioxide], for which the IC50 in assay [1] (setting [4]) amounted to 842 nM; in assay [2] (setting [3]) it was 0.99 nM.

On to `CO[C@@]1(CC(=O)N(C)C(C)(C)C)/C=C/C[C@H](C)[C@@H](C)S(=O)(=O)NC(=O)c2ccc3c(c2)N(C[C@@H]2CC[C@H]21)C[C@@]1(CCCc2cc(Cl)ccc21)CO3` [Example 100008, 2-((1 S,3′R,6′R,7′S,8′E,11′S, 12′R)-6-chloro-7′-methoxy-11′,12′-dimethyl-13′,13′-dioxido-15′-oxo-3,4-dihydro-2H-spiro[naphthalene-1,22′-[20]oxa[13]thia[1,14]diazatetracyclo[14.7.2.0-3,6˜.0˜19,24˜]pentacosa[8,16,18,24]tetraen]-7′-yl)-N-methyl-N-(2-methyl-2-propanyl)acetamide], for which the IC50 worked out at 541 nM in assay [1] (setting [4]) and 0.17 nM in assay [2] (setting [3]).

Regarding `C[C@@H]1[C@@H](C)C/C=C/[C@@](O)(CC(=O)OCC2(C)COC2)[C@@H]2CC[C@H]2CN2C[C@@]3(CCCc4cc(Cl)ccc43)COc3ccc(cc32)C(=O)NS1(=O)=O` [Example 100299, (3-methyl-3-oxetanyl)methyl ((1S,3′R,6′R,7′S,8′E,11′S,12′R)-6-chloro-7′-hydroxy-11′,12′-dimethyl-13′,13′-dioxido-15′-oxo-3,4-dihydro-2H-spiro[naphthalene-1,22′-[20]oxa[13]thia[1,14]diazatetracyclo [14.7.2.0~3,6~.0~19,24~]pentacosa[8,16,18,24]tetraen]-7′-yl)acetate], the values for the concentration for half-maximal inhibition (IC50) in assay [1] (setting [4]) and in assay [2] (setting [3]) were 623 nM and 0.35 nM, respectively.

As to `C[C@@H]1[C@@H](C)C/C=C/[C@](O)(c2ncccn2)[C@@H]2CC[C@H]2CN2C[C@@]3(CCCc4cc(Cl)ccc43)COc3ccc(cc32)C(=O)NS1(=O)=O` (single isomer, unassigned) [Example 100274], the IC50 in assay [1] (setting [4]) is 543 nM; in assay [2] (setting [3]) it was 0.377 nM.

Take `CO[C@]1(CN2CCN(C3COC3)CC2)/C=C/[C@H](C)[C@H](C)CS(=O)(=O)NC(=O)c2ccc3c(c2)N(C[C@@H]2CC[C@H]21)C[C@@]1(CCCc2cc(Cl)ccc21)CO3` [Example 159, (1S,3′R,6′R,7′R,8′E,10′S,11′S)-6-chloro-7′-methoxy-10′,11′-dimethyl-7′-((4-(3-oxetanyl)-1-piperazinyl)methyl)-3,4-dihydro-2H,15′H-spiro[naphthalene-1,22′-[20]oxa[13]thia[1,14]diazatetracyclo [14.7.2.0~3,6~.0~19,24~]pentacosa[8,16,18,24]tetraen]-15′-one 13′,13′-dioxide]: the values for the IC50 in assay [1] (setting [7]) and in assay [2] (setting [6]) were 79 nM and 0.096 nM, respectively.

Take `C[C@H](C(=O)N(C)C)[C@]1(O)/C=C/C[C@H](C)[C@@H](C)S(=O)(=O)NC(=O)c2ccc3c(c2)N(C[C@@H]2CC[C@H]21)C[C@@]1(CCCc2cc(Cl)ccc21)CO3` [Example 100125, (2S)-2-((1S,3′R,6′R,7′S,8′E,11′S,12′R)-6-chloro-7′-hydroxy-11′,12′-dimethyl-13′,13′-dioxido-15′-oxo-3,4-dihydro-2H-spiro[naphthalene-1,22′-[20]oxa[13]thia[1,14]diazatetracyclo [14.7.2.0~3,6~.0~19,24~]pentacosa[8,16,18,24]tetraen]-7′-yl)-N,N-dimethylpropanamide]: the IC50 is 555 nM in assay [1] (setting [4]) and 0.43 nM in assay [2] (setting [3]).

For `CO[C@@H](C(=O)N(C)C)[C@]1(O)/C=C/C[C@H](C)[C@@H](C)S(=O)(=O)NC(=O)c2ccc3c(c2)N(C[C@@H]2CC[C@H]21)C[C@@]1(CCCc2cc(Cl)ccc21)CO3` [Example 100285, (2R)-2-((1S,3′R,6′R,7′S,8′E,11′S,12′R)-6-chloro-7′-hydroxy-11′,12′-dimethyl-13′,13′-dioxido-15′-oxo-3,4-dihydro-2H-spiro[naphthalene-1,22′-[20]oxa[13]thia[1,14]diazatetracyclo [14.7.2.0~3,6~.0~19,24~]pentacosa[8,16,18,24]tetraen]-7′-yl)-2-methoxy-N,N-dimethylethanamide], the figures for the half-maximal inhibitory concentration (IC50) in assay [1] (setting [4]) and in assay [2] (setting [3]) were 642 nM and 0.241 nM, respectively.

Consider `CO[C@@]1(CN2CCN3CC[C@H](F)C[C@@H]3C2)/C=C/C[C@H](C)[C@@H](C)S(=O)(=O)NC(=O)c2ccc3c(c2)N(C[C@@H]2CC[C@H]21)C[C@@]1(CCCc2cc(Cl)ccc21)CO3` (single isomer, unassigned) [Example 284], for which the concentration for half-maximal inhibition (IC50) stood at 230 nM in assay [1] (setting [5]) and 0.288 nM in assay [2] (setting [6]).

Turning to `CO[C@@]1(CN2CCN(Cc3noc(C)n3)CC2)/C=C/C[C@H](C)[C@@H](C)S(=O)(=O)NC(=O)c2ccc3c(c2)N(C[C@@H]2CC[C@H]21)C[C@@]1(CCCc2cc(Cl)ccc21)CO3` [Example 316, (1S,3′R,6′R,7′S,8′E,11′S,12′R)-6-chloro-7′-methoxy-11′,12′-dimethyl-7′-((4-((5-methyl-1,2,4-oxadiazol-3-yl)methyl)-1-piperazinyl)methyl)-3,4-dihydro-2H,15′H-spiro[naphthalene-1,22′-[20]oxa[13]thia[1,14]diazatetracyclo [14.7.2.0~3,6~.0~19,24~]pentacosa[8,16,18,24]tetraen]-15′-one 13′,13′-dioxide], the IC50 in assay [1] (setting [7]) was 47 nM; in assay [2] (setting [6]) it was 0.166 nM.

As to `CC[C@@H]1CCCC[C@](O)(CO)[C@@H]2CC[C@H]2CN2C[C@@]3(CCCc4cc(Cl)ccc43)COc3ccc(cc32)C(=O)NS1(=O)=O` [Example 100036, (1S,3′R,6′R,7′R,12′R)-6-chloro-12′-ethyl-7′-hydroxy-7′-(hydroxymethyl)-3,4-dihydro-2H,15′H-spiro[naphthalene-1,22′-[20]oxa[13]thia[1,14]diazatetracyclo [14.7.2.0~3,6~.0~19,24~]pentacosa[16,18,24]trien]-15′-one 13′,13′-dioxide], the half-maximal inhibitory concentration (IC50) in assay [1] (setting [4]) was found to be 1980 nM; in assay [2] (setting [3]) it was 0.889 nM.

In general, IC50 refers to the concentration at which inhibition is half-maximal.
